Reference: patent US20230255197A1, “INFLUENCE OF THE MORPHOLOGICAL AND THE STRUCTURAL CHANGES ON THE ANTIMICROBIAL ACTIVITIES OF TITANATE NANOWIRES” (BOARD OF TRUSTEES OF THE UNIVERSITY OF ARKANSAS, priority 2022, published 2023)

Tested on: E. coli cells
Assay: E. coli growth in LB medium in 96-well plates, cell growth monitored by absorbance at 600 nm
Format: cell-based
Settings: 37° C., O.D. at 600 nm = 0.25, read from FIG. 2, chloramphenicol:nanomaterial w/w 1:10
Description: In step (3), to test the antimicrobial efficiency, solution of E. coli cells were inoculated into fresh LB medium and incubated at 37° C. overnight. In one embodiment, 5µL solution of E. coli cells was inoculated into 2 ml of fresh LB medium. Sample of the overnight culture was transferred into each well of a 96-well plate and further grown with 200 µL fresh LB medium. To test antimicrobial activities, different concentrations of antimicrobial agents alone, TiO2 alone, and TiO2 nanowires - chloramphenicol complex were added to the LB medium with E. coli cells. It should be noted that same procedure was followed to prepare different concentrations (1, 2, 3, 4, and 5 µg/ml) of either chloramphenicol alone, nanomaterials alone or a mixture of both. Three identical replicates were prepared on the plate for each assigned material. Then, the 96-well plates were sealed with an oxygen-permeable membrane and the cell growth was monitored by reading the absorbance at 600 nm with microplate readers at 37° C. continuously. Equal amounts of chloramphenicol were mixed with each sample of the assigned version of nanomaterials (Na-TiO2 and K-TiO2) with a w/w ratio of 1:10. […]

O=C(N[C@H](CO)[C@H](O)c1ccc([N+](=O)[O-])cc1)C(Cl)Cl [chloramphenicol]
concentration of chloramphenicol necessary to reach the same O.D. reading 0.25 (same degree of antimicrobial activity): 5 µg/mL
